Reference: patent US12281102B2, “Inhibitors of APOL1 and methods of using same” (Vertex Pharmaceuticals Incorporated, priority 2020, dated 2025)

How the values were obtained:
G1 APOL1 = molecular target: T1, G1 APOL1 (Homo sapiens, UniProt O14791, I384M/S342G); experiment: Acute APOL1 Thallium Assay with inducible stable clones of HEK 293 cells; format: cell-based; settings: HEK 293 T-Rex inducible stable clone expressing G1 APOL1; read-out: Thallium Assay (IC50)
T1 construct: expressed in transfected cells
T1 sequence (O14791 28-398 S342G/I384M): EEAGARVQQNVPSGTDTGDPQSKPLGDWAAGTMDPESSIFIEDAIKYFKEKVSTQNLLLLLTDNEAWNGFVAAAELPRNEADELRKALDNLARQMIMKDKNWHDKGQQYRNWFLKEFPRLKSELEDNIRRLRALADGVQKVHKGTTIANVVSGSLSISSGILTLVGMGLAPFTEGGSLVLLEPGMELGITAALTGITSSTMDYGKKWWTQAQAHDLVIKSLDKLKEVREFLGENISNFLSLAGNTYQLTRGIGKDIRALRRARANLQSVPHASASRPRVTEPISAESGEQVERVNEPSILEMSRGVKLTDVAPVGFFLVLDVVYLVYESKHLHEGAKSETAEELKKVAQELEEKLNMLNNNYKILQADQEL
Summary of the method: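 APOL1 pore function was measured as thallium influx, detected by a Tl+-sensitive fluorescent dye loaded as AM ester, on a FLIPR Tetra after Tl+ addition. Cells were HEK T-Rex G1 APOL1 clone DC3.25, 26,000 per well, induced with tetracycline at plating in Opti-MEM assay medium.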

APOL1 G1 Protein = molecular target: T2, APOL1 G1 Protein (Homo sapiens, UniProt O14791, I384M/S342G); experiment: Trypanosoma brucei brucei lysis assay using APOL1 recombinant protein (AlamarBlue viability); format: cell-based; settings: Trypanosoma brucei brucei lysis with recombinant APOL1 protein
T2 sequence (O14791 28-398 S342G/I384M): T1 sequence (O14791 28-398 S342G/I384M)

With COCCNCC1CC(c2c(-c3ccc(F)cc3)[nH]c3c(F)cc(F)cc23)C1 (stereo not shown) [Compound 375] the IC50 (G1 APOL1) was < 250 nM and the IC50 (APOL1 G1 Protein) was < 250 nM.

With OCC1CC(c2c(-c3ccc(F)cc3)[nH]c3c(F)cc(F)cc23)C1 (stereo not shown) [Compound 424, [3-[5,7-difluoro-2-(4-fluorophenyl)-1H-indol-3-yl]cyclobutyl]methanol] the IC50 (G1 APOL1) was < 250 nM and the IC50 (APOL1 G1 Protein) was < 250 nM.

With CC1(CN)CC(c2c(-c3ccc(F)cc3)[nH]c3c(F)cc(F)cc23)C1 (stereo not shown) [Compound 426, [3-[5,7-difluoro-2-(4-fluorophenyl)-1H-indol-3-yl]-1-methyl-cyclobutyl]methanamine] the IC50 (G1 APOL1) was 250 to 1000 nM and the IC50 (APOL1 G1 Protein) was < 250 nM.

In the case of NCC1(O)CC(c2c(-c3ccc(F)cc3)[nH]c3c(F)cc(F)cc23)C1 (stereo not shown) [Compound 427, 1-(aminomethyl)-3-[5,7-difluoro-2-(4-fluorophenyl)-1H-indol-3-yl]cyclobutanol], the IC50 (G1 APOL1) is reported as 250 to 1000 nM and the IC50 (APOL1 G1 Protein) is reported as < 250 nM.

For NC1CC2(C1)CC(c1c(-c3ccc(F)cc3)[nH]c3c(F)cc(F)cc13)C2 (stereo not shown) [Compound 432, 6-[5,7-difluoro-2-(4-fluorophenyl)-1H-indol-3-yl]spiro[3.3]heptan-2-amine], the IC50 (G1 APOL1) was > 1000 nM and the IC50 (APOL1 G1 Protein) was < 250 nM.

NC1CCC(c2c(-c3ccc(F)cc3)[nH]c3c(F)cc(F)cc23)CC1 (stereo not shown) [Compound 433, 4-[5,7-difluoro-2-(4-fluorophenyl)-1H-indol-3-yl]cyclohexanamine] was tested, and the IC50 (G1 APOL1) was < 250 nM and the IC50 (APOL1 G1 Protein) was < 250 nM.

With O=C(C1CCO1)N1CCC(Cc2c(-c3ccc(F)cc3)[nH]c3c(F)cc(F)cc23)C1 (stereo not shown) [Compound 443, [3-[[5,7-difluoro-2-(4-fluorophenyl)-1H-indol-3-yl]methyl]pyrrolidin-1-yl]-(oxetan-2-yl)methanone] the IC50 (G1 APOL1) was 250 to 1000 nM and the IC50 (APOL1 G1 Protein) was 250 to 1000 nM.

In the case of CC(=O)N1CCC(Cc2c(-c3ccc(F)cc3)[nH]c3c(F)cc(F)cc23)C1 (stereo not shown) [Compound 444, 1-(3-((5,7-difluoro-2-(4-fluorophenyl)-1H-indol-3-yl)methyl)pyrrolidin-1-yl)ethan-1-one], the IC50 (G1 APOL1) is reported as > 1000 nM and the IC50 (APOL1 G1 Protein) is reported as 250 to 1000 nM.
